These results are taken from patent US7790896B2, “RNA-selective probes for live cell imaging of nuclear structure and function” (New York University, priority 2006, dated 2010).

For one series, the system named is 3T3 cells. Briefly: Cytotoxicity test, MTS assay. The format is cell-based. The procedure: Dye DMSO stock solutions were diluted by fresh medium into four desired concentrations ([…], 13.5 μM, 10 μM and 5 μM). Cells were cultured in 96-well plate for 12 hours before experiments. The cell medium was then exchanged with different concentrations of dye medium solutions. Cells were incubated at 37° C. in 5% CO2 for 5, 15, or 24 hours before viability by MTS assay was measured. As for the MTS assay, briefly, 3-(4,5-dimethylthiazol-2-yl)-5-(3-carboxymethoxyphenyl)-2-(4-sulfophenyl)-2H-tetrazolium (MTS) and phenazine methosulfate (PMS) were mixed at a ratio of 20:1 right before the experiments. The cell dye medium solution was exchanged with 80 μL of fresh medium followed by the addition of 20 μL MTS/PMS solution to each well. 100 μM hydrogen peroxide was used as positive control. The cell plates were then incubated at 37° C. in 5% CO2 for 2 hours. Absorbance was measured at 490 nm. The absorbance measured for an untreated cell population under the same experimental conditions was used as the reference point to establish 100% cell viability. Duplicated experiments have been tested.
(20 μM, 13.5 μM, 10 μM, and 5 μM) in A549 and 3T3 cells and the cytotoxicity was measured using standard MTS assay after 5, 15, or 24 hours incubation (FIG. 5A). Generally, there was no toxicity (defined by greater than 50% cell death) associated with any of the dyes at the working concentration (5 μM) after 24 hours incubation. In A549 cell, all three dyes were non-toxic after 24 hours incubation at all concentrations. In 3T3 cells, E144 was non-toxic, but 20 μM of E36 was toxic after 24 hours incubation and 20 μM F22 was toxic after 15 hours incubation. Since the compounds bind to RNA, it is not surprising to see some signs of toxicity at higher concentrations, especially after one doubling period (approximately 22 hours for A549 cells and 20-25 hours for 3T3 cells). […] Additional studies are required to determine if the compounds perturb nucleolar dynamics throughout the cells cycle.
(In general: Tetrazolium dyes change colour on reduction, which living cells bring about.)

In series [1] the test system is RNA (16S- and 23S-ribosomal from E. coli) vs. DNA (salmon testes). Briefly: RNA vs. DNA selectivity titration in solution. The format is binding. The following applies: E36 5 μM, E144 10 μM, F22 10 μM; nucleic acid 0.195 to 200 μg/mL. The procedure:
(§1) Samples containing 50 μg/mL RNA in TE buffer with an increasing concentration of compound from 0.15 μM to 10 μM. Shown here is the intensity increase recorded at the emission λmax wavelength of each dye. […] The samples contain fixed concentration of dyes (E36: 5 μM; E144: 10 μM; F22: 10 μM) in TE buffer with an increasing concentration of RNA or DNA from 0.19 μg/mL to 200 μg/mL. Data points were in duplicated in individual experiments, and error bars represent standard deviation.
(§2) The fluorescence spectra data in the primary screening and selected dyes titration assay study was obtained by Gemini XS plate reader. RNA solution was prepared right before the assay experiments to avoid possible degradation and contamination. In the primary screening, 1 mg/mL RNA (type VI from torula yeast) buffer solution was used. Point scans were carried out first using five Ex/Em point sets ([…], 400/500, 450/550, 500/600, 550/650 nm). Spectra scans were then carried out for the selected dyes. Excitation wavelengths were set at 350 nm, 400 nm, 450 nm, 500 nm, and 550 nm and the emission wavelengths were scanned. RNA (16S- and 23S-ribosomal from E. coli) and DNA (salmon testes) titration experiments and quantum yield/extinction coefficient determination for the three best dyes were carried out by the plate reader as well. Excitation λmax obtained from F-2500 Hitachi Fluorophotometer was used. Absorbance wavelength was determined by SpectraMax Plus^384 absorbance plate reader. […] was chosen as standard and 480 nm was used as excitation wavelength in the scanning for quantum yield determination.
A set of solution assay experiments were then carried out to investigate the dyes' selectivity to bind RNA vs. DNA in vitro. With a fixed concentration of dye (E36 5 μM, E144 10 μM, and F22 10 μM), the fluorescent intensity at various nucleic acid concentrations (0.195 μg/mL to 200 μg/mL) was determined at the appropriate emission λmax wavelength. SYTO®RNASelect (5 μM) and Hoechst 33258 (5 μM) dyes were used as standards for RNA selective and DNA selective dyes (FIG. 3B).

Series [2] concerns 3T3 fibroblast cells, 3T3-L1 adipocyte cells, Hela cells and A549 human lung carcinoma cells. Briefly: Secondary screening: live cell nuclear imaging properties in four cell lines. The format is cell-based, mouse. Conditions: dye 25 μM. The protocol: All cell staining imaging followed the same procedure. Generally, dyes in dry state were first dissolved in DMSO to obtain the stock solution. The stock solutions were then added directly to the cell culture wells to reach the desired concentration. Total DMSO was lower than 0.1%. After adding dyes, cells were incubated at 37° C. in 5% CO2 for 25 minutes. The medium was then removed and cells were rinsed with fresh medium twice. The cells were then imaged at ambient temperature in the medium. Exposure time was kept less than 5 seconds and adjusted to each dye.
The selected compounds from both primary screens (total 88) were resynthesized in large scale and purified. The compounds' live cell nuclear imaging properties were then tested by four cell lines, including two mouse cell lines: 3T3 fibroblast cells and 3T3-L1 adipocyte cells; and two human cancer cell lines: Hela cells and A549 human lung carcinoma cells. Herein, the final dye concentration in each test was decreased to 25 μM and all the experiments were repeated to establish reproducibility. […] Each of the three dyes contained at least one high affinity nucleic acid functional group (Trotta et al., “Solution Structure of DAPI Selectively Bound in the Minor Groove of a DNA T-T Mismatch-Containing Site: NMR and Molecular Dynamics Studies,” Nucleic Acids Res. 26:4706-4713 (1998); Loontiens et al., “Binding Characteristics of Hoechst 33258 with Calf Thymus DNA, Poly[d(A-T)], and d(CCGGAATTCCGG): Multiple Stoichiometries and Determination of Tight Binding with a Wide Spectrum of Site Affinities,” Biochem. 29:9029-9039 (1990); Zipper et al., “Investigations on DNA Intercalation and Surface Binding by SYBR Green I, Its Structure Determination and Methodological Implications,” Nucleic Acid Res. 32:E103 (2004); Glazer et al., “Stable Dye-DNA Intercalation Complexes as Reagents for High-Sensitivity Fluorescence Detection,” Nature 359:859-861 (1992), which are hereby incorporated by reference in their entirety) in building block II such as the terminal secondary amine for F22 and F112, the trimethoxy for E 144, and the indole for E36.

Series [3] deals with RNA, 16S- and 23S-ribosomal from E. coli. Briefly: Dye concentration dependency titration with RNA. Conditions: dye 0.15 μM to 10 μM, RNA 50 μg/mL. It counts as binding. The protocol:
as §1, §2
The RNA binding characteristics of these dyes was further examined by determining if the fluorescent intensity was concentration dependent (FIG. 3A). […] Moreover, a slight emission Ma red shift was observed (total 8 nm) with the increasing concentration of E36.

As for `COc1ccc2c(ccc(/C=C/c3ccc(N(C)C)cc3)[n+]2C)c1` [Dye F22], in the series on 3T3 cells (20 μM, 15 hours incubation), the “Cytotoxicity (toxic = greater than 50% cell death)” value is recorded as “toxic”. Moreover, the “Fluorescent intensity response to RNA vs. DNA” value in series [1] was “higher response to RNA than to DNA”. Moreover, in series [2], the “Live cell nuclear imaging properties (basis of selection)” value is “selective nucleolar targeting, high fluorescence intensity, low photobleaching, and low cellular toxicity”. Also, in series [3], the “Emission λmax red shift with increasing dye concentration” value was “did not show obvious wavelength shift” and the “Fluorescent intensity vs dye concentration (titration curve)” value is listed as “evidence of saturation at high concentration”.
Consider `COc1cc(OC)c(/C=C/c2ccc3ccccc3[n+]2C)c(OC)c1` [Dye E144], for which the “Cytotoxicity (toxic = greater than 50% cell death)” value in the series with 3T3 cells (20, 13.5, 10 and 5 μM, 5, 15 or 24 hours) was “non-toxic”. Further, the “Fluorescent intensity response to RNA vs. DNA” value in series [1] is “almost same binding affinity to both RNA and DNA”. In addition, in series [2], the “Live cell nuclear imaging properties (basis of selection)” value is “selective nucleolar targeting, high fluorescence intensity, low photobleaching, and low cellular toxicity”. Further, in series [3], the “Emission λmax red shift with increasing dye concentration” value is listed as “did not show obvious wavelength shift” and the “Fluorescent intensity vs dye concentration (titration curve)” value is listed as “almost linear curve”.
For `C[n+]1c(/C=C/c2c[nH]c3ccccc23)ccc2ccccc21` [Dye E36], the “Cytotoxicity (toxic = greater than 50% cell death)” value with 3T3 cells (20 μM, 24 hours incubation) is given as “toxic”. Besides, the “Fluorescent intensity response to RNA vs. DNA” value in series [1] is listed as “higher response to RNA than to DNA”. In addition, the “Live cell nuclear imaging properties (basis of selection)” value in series [2] was “selective nucleolar targeting, high fluorescence intensity, low photobleaching, and low cellular toxicity”. In series [3], the “Emission λmax red shift with increasing dye concentration” value is 8 nm and the “Fluorescent intensity vs dye concentration (titration curve)” value is recorded as “evidence of saturation at high concentration”.
